Measurements reported in patent US5891917A, “Certain acrylonitrile-sulfonamide derivatives” (Sugen, Inc., priority 1997, dated 1999).

Assays:
PDGFR-beta = biological target: T1, PDGFR-beta (Homo sapiens, UniProt P09619); experiment: PDGF-R Cellular Assay (ELISA); assay type: cell-based; settings: U1242 MG cells, 100 ng/ml PDGF-BB
T1 construct: the human glioblastoma line U1242 that expresses PDGFR-beta; endogenous in cells; host or cells: U1242 MG human glioblastoma cells
From the text: (§1) The following examples illustrate the ability of the exemplary compounds to inhibit receptor tyrosine kinases, such as HER2 and/or EGFR. The following target cells were used for cellular kinase assays: NIH3T3 clone C7 (Honegger et al., supra) engineered to over-express human EGF receptor; NIH3T3 cells engineered to over-express a chimeric receptor containing the EGFR extracellular domain and the HER2 intracellular kinase domain; the human mammary carcinoma line BT474 (ATCC HTB2) expressing HER2; and the human glioblastoma line U1242 that expresses PDGFR-beta. Growth assays were carried out using human mammary epithelial SKBR3 (ATCC HTB30) cells (SKBR3 cells over-express HER2), SKOV3 (ATCC HTB77) human ovarian cancer cell line (SKOV3 cells also over-express HER2), A431 cells (A431 cells over-express EGFR) MCF7 human breast carcinoma cells, MCF7 cells overexpressing the HER2 kinase (MCF7-HER2), NIH3T3 cells, and NIH3T3 cells overexpressing the HER2 kinase (3T3-HER2.
The PDGF cellular kinase assay was carried out as follows: cells are lysed in 0.2M Hepes, 0.15M NaCl, 10% V/V glycerol, 0.04% Triton X-100, 5 mM EDTA, 5 rnM Na+ vanadate and 2 mM Na+ pyrophosphate; cell lysates are then added to an ELISA plate coated with an anti-PDGF receptor antibody (Genzyme); ELISA plates are coated at 0.5 μg of antibody/well in 150 μl of PBS for 18 hours at 4° C. prior to the addition of the lysate; the lysate is incubated in the coated plates for 1 hour and then washed four times in TBST (35 mM Tris-HCl pH 7.0, 0.15M NaCl, 0.1% Triton X100); anti-phosphotyrosine antibody (100 μl in PBS) is added and the mixture is incubated for 30 minutes at room temperature; the wells were then washed four times in TBST, a secondary antibody conjugated to POD (TAGO) is added to each well, and the treated well are incubated for 30 minutes at room temperature; the wells are then washed four times in TBST, ABTS/H2 O2 solution is added to each well and the wells are incubated for two minutes; absorbance is then measured at 410 nm.
U1242 MG cells were plated in 96-well plates at a concentration of 5×10^4 cells/well in cultured media containing 0.5% FBS. The cells were incubated for 24 hours. The cells were then treated with a particular compound for 2 hours followed by the addition of 100 ng/ml PDGF-BB and incubation for 10 minutes.
Cells were lysed in 0.2M Hepes, 0.15M NaCl, 10% V/V glycerol, 0.04% Triton X-100, 5 mM EDTA, 5 mM Na+ vanadate and 2 mM Na+ pyrophosphate. Cell lysates were then added to an ELISA plate coated with an anti-PDGF receptor antibody (Genzyme). ELISA plates were coated at 0.5 μg of antibody/well in 150 μl of PBS for 18 hours at 4° C. prior to the addition of the lysate.
The lysate was incubated in the coated plates for 1 hour and then washed four times in TBST (35 mM Tris-HCl pH 7.0, 0.15M NaCl, 0.1 % Triton X-100). Anti-phosphotyrosine antibody (100 μl in PBS) was added and the mixture was incubated for 30 minutes at room temperature. The wells were then washed four times in TBST, a secondary antibody conjugated to POD (TAGO) was added to each well, and the treated well were incubated for 30 minutes at room temperature. The wells were then washed four times in TBST, ABTS/H2 O2 solution was added to each well and the wells were incubated for two minutes. Absorbance was then measured at 410 nm.

[1] = system: chimeric receptor containing the EGFR extracellular domain and the HER2 intracellular kinase domain; experiment: EGFR-HER2 chimeric receptor whole cell kinase ELISA (3T3); assay type: cell-based; settings: NIH3T3 cells with EGFR/HER2 chimera, 100 nM EGF
From the text: as §1
EGFR-HER2 Chimeric Recetor
HER2 kinase activity (EGFR-3T3) in whole cells was measured as described below:
The materials and regeants are identical to these used in example 1, the EGFR whole cell kinase assay.
A. Coat ELISA plates (Corning, 96 well, Cat. #25805-96) with 05-101 antibody at 0.5 μg per well in PBS, 100 μl final volume/well, and store overnight at 4° C. Coated plates are good for up to 10 days when stored at 4° C.
B. On day of use, remove coating buffer and replace with 100 μl blocking buffer (5% Carnation Instant Non-Fat Dry Milk in PBS). Incubate the plate, shaking, at room temperature (about 23° C. to 25° C.) for 30 minutes. Just prior to use, remove blocking buffer and wash plate 4 times with TBST buffer.
A. An NIH3T3 cell line overexpressing a chimeric receptor containing the EGFR extracellular domain and extracellular HER2 kinase domain can be used for this assay.
B. Choose dishes having 80-90% confluence for the experiment. Trypsinize cells and stop reaction by adding 10% fetal bovine serum. Suspend cells in DMEM medium (10% CS DMEM medium) and centrifuge once at 1500 rpm, at room temperature for 5 minutes.
C. Resuspend cells in seeding medium (DMEM, 0.5% bovine serum), and count the cells using trypan blue. Viability above 90% is acceptable. Seed cells in DMEM medium (0.5% bovine serum) at a density of 10,000 cells per well, 100 μl per well, in a 96 well microtiter plate. Incubate seeded cells in 5% CO2 at 37° C. for about 40 hours.
A. Check seeded cells for contamination using an inverted microscope. Dilute drug stock (10 mg/ml in DMSO) 1:10 in DMEM medium, then transfer 5 l to a […] well for a final drug dilution of 1:200 and a final DMSO concentration of 1%. Control wells receive DMSO alone. Incubate in 5% CO2 at 37° C. for two hours.
B. Prepare EGF ligand: dilute stock EGF in DMEM so that upon transfer of 10 μl dilute EGF (1:12 dilution), 100 nM final concentration is attained.
D. After 120 minutes incubation with drug, add prepared […] ligand to cells, 10 μl per well, to a final concentration of 100 nM. Control wells receive DMEM alone. Incubate, shaking, at room temperature, for 5 minutes.
E. Remove drug, EGF, and DMEM. Wash cells twice with PBS. Transfer HNTG* to cells, 100 μl per well. Place on ice for 5 minutes. Meanwhile, remove blocking buffer from other ELISA plate and wash with TBST as described above.
F. With a pipette tip securely fitted to a micropipettor, scrape cells from plate and homogenize cell material by repeatedly aspirating and dispensing the HNTG* lysis buffer. Transfer lysate to a coated, blocked, and washed ELISA plate. Incubate shaking at room temperature for one hour.
G. Remove lysate and wash 4 times with TBST. Transfer freshly diluted anti-Ptyr antibody to ELISA plate at 100 μl per well. Incubate shaking at room temperature for 30 minutes in the presence of the anti-Ptyr antiserum (1:3000 dilution in TBST).
H. Remove the anti-Ptyr antibody and wash 4 times with TBST. […]

T1 sequence (P09619 33-1106): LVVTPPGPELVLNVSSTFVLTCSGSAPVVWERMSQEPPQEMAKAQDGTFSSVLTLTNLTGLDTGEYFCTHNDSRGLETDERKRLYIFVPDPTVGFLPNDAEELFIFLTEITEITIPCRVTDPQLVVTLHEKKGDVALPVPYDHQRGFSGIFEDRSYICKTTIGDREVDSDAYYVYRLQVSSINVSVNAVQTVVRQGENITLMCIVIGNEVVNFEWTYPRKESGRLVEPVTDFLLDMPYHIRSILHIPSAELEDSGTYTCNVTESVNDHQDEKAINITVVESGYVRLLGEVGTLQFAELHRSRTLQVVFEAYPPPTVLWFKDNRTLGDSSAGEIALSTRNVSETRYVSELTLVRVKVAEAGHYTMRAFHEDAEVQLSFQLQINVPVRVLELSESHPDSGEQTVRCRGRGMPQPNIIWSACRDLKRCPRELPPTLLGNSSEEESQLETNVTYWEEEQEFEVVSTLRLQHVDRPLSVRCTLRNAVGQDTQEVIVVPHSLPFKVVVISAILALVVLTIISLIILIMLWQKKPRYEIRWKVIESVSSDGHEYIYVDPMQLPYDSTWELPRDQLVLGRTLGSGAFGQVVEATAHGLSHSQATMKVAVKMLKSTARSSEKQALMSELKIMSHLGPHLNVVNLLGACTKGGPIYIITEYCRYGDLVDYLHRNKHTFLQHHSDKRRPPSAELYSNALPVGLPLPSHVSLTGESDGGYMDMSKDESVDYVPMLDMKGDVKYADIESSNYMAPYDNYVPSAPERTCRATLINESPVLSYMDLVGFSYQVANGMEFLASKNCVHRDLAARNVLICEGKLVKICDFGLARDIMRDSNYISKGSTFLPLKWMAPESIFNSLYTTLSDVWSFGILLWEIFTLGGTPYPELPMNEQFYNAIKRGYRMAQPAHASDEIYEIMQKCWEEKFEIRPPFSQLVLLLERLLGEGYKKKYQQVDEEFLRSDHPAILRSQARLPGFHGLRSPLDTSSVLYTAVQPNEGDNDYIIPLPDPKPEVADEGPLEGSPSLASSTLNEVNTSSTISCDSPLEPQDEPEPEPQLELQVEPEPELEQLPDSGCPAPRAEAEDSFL

| IC50 (PDGFR-beta) | IC50 [1] | Structure (SMILES) |
| --- | --- | --- |
| > 100 µM | > 100 µM | CC(C)(C)c1cc(/C=C(\C#N)S(=O)(=O)c2ccc(F)cc2)cc(C(C)(C)C)c1O [Compound 740] |
| > 100 µM |  | Cc1cc(/C=C(\C#N)S(=O)(=O)c2ccc(F)cc2)cc(C)c1O [Compound 744] |
| > 100 µM | 22.7 µM | CC(C)c1cc(/C=C(\C#N)S(=O)(=O)Cc2cccc(C(F)(F)F)c2)cc(C(C)C)c1O [Compound 736] |
| > 100 µM | 13.9 µM | CC(C)c1cc(/C=C(\C#N)S(=O)(=O)c2ccc(F)cc2)cc(C(C)C)c1O [Compound 741, (E)-3-(3,5-Diisopropyl-4-hydroxyphenyl)-2-(4-fluorophenylsulfonyl)acrylonitrile] |
| > 100 µM | 57.4 µM | CC(C)(C)c1cc(/C=C(\C#N)S(=O)(=O)Cc2cccc(C(F)(F)F)c2)cc(C(C)(C)C)c1O [Compound 735] |
| > 100 µM | 27.8 µM | CC(C)(C)c1cc(/C=C(\C#N)S(=O)(=O)c2cccs2)cc(C(C)(C)C)c1O [Compound 742] |
| > 100 µM | 36.4 µM | CC(C)c1cc(/C=C(\C#N)S(=O)(=O)c2ccsc2)cc(C(C)C)c1O [Compound 738] |

Further lines, the compound ahead of its results:

| Structure (SMILES) | IC50 (PDGFR-beta) | IC50 [1] |
| --- | --- | --- |
| Cc1cc(/C=C(\C#N)S(=O)(=O)Cc2cccc(C(F)(F)F)c2)cc(C)c1O [Compound 739] | > 100 µM | > 100 µM |
| CC(C)c1cc(/C=C(\C#N)S(=O)(=O)c2cccs2)cc(C(C)C)c1O [Compound 737] | > 100 µM | 32 µM |
| CC(C)c1cc(/C=C(\C#N)S(=O)(=O)c2ccccn2)cc(C(C)C)c1O [Compound 747] | > 50 µM |  |
| N#C/C(=C\c1ccc(O)cc1Cl)S(=O)(=O)NCCCc1ccccc1 [Compound 734] | > 50 µM | 21.7 µM |
| Cc1cc(/C=C(\C#N)S(=O)(=O)c2ccccc2)cc(C)c1O [Compound 748] | > 100 µM |  |
| CC(C)c1cc(/C=C(\C#N)S(=O)(=O)c2ccccc2)cc(C(C)C)c1O [Compound 731] | > 50 µM | 17.2 µM |
| N#C/C(=C\c1ccc(O)cc1Cl)S(=O)(=O)NCc1ccccc1 [Compound 733] | > 50 µM | 83.5 µM |
| CC(C)(C)c1cc(/C=C(\C#N)S(=O)(=O)c2ccsc2)cc(C(C)(C)C)c1O [Compound 746] | > 100 µM | 8.1 µM |
| N#C/C(=C\c1ccc(O)c(O)c1)S(=O)(=O)c1cccs1 [Compound 743, (E)-3-(3,4-Dihydroxyphenyl)-2-[(thien-2-yl)sulfonyl]acrylonitrile] | > 100 µM |  |
| CC(C)c1cc(/C=C(\C#N)S(=O)(=O)NCc2ccccc2)cc(C(C)C)c1O [Compound 732] | 50 µM | 20.9 µM |
